Measured values published in patent publication US12492181B2, “Gem-disubstituted piperidine melanocortin subtype-2 receptor (MC2R) antagonists and uses thereof” (Crinetics Pharmaceuticals, Inc., priority 2019, dated 2025).

What follows are compounds tested against T1, hMC2 receptor (crude hMC2R membranes from CRE-bla-CHO-K1 cells stably expressing hMC2 receptor and hMRAP accessory protein) (Homo sapiens, UniProt Q01718) (assay: hMC2 membrane binding assay ([125I]ACTH (1-39) Tyr23, SPA)). Details: displacement of 0.2 nM [125I]ACTH (1-39) Tyr23 from hMC2R membranes, 1.5 hours at room temperature; read-out: MC2R binding potency.
T1 construct: crude membrane fractions
Protocol: Crude membrane fractions are prepared from CRE-bla-CHO-K1 cells stably expressing hMC2 receptor and hMRAP accessory protein (Thermo Fisher). The cells are grown to 85-100% confluence on standard tissue culture dishes in GlutaMax DMEM growth media (Gibco) with following additives: 10% dialyzed FBS (Gemini), 0.1 mM NEAA (Gibco), 25 mM HEPES (Gibco), 5 μg/mL blasticidin (Goldbio), 100 μg/mL zeocin (Invitrogen), 600 μg/mL hygromycin (Goldbio). To prepare membranes, cells are scraped and collected in 1× Dulbecco's phosphate buffered saline (Corning) and then pelleted at 1000 RPM's. The cell pellet is reconstituted in membrane preparation buffer (20 mM HEPES, 6 mM MgCl2 and 1 mM EGTA, protease inhibitor tablets (Pierce) adjusted to pH 7.4), homogenized using a dounce homogenizer, and the resulting membrane fraction is pelleted by centrifugation at 12,000 RPM's. The membrane pellet is resuspended in membrane preparation buffer, snap freezed and stored at −80° C. for later use.
Binding Assay for hMC2 Antagonists Protocol:
The hMC2 membrane binding assay utilizes the following components: radiolabel [^125I]ACTH (1-39) Tyr23 (PerkinElmer), wheatgerm agglutinin coated PVT SPA beads (PerkinElmer), crude hMC2R membranes, and compounds. Briefly hMC2R membranes are incubated with SPA beads in binding assay buffer (50 mM HEPES, 5 mM MgCl2, 1 mM CaCl2), 0.20% BSA, protease inhibitor tablets (Pierce) adjusted to pH7.4) prior to assay initiation. […] Assay plates are read using a Top Count NXT and Ki values for compounds are determined using a GraphPad Prism 6 non-linear regression analysis.

T1 sequence (Q01718 whole entry): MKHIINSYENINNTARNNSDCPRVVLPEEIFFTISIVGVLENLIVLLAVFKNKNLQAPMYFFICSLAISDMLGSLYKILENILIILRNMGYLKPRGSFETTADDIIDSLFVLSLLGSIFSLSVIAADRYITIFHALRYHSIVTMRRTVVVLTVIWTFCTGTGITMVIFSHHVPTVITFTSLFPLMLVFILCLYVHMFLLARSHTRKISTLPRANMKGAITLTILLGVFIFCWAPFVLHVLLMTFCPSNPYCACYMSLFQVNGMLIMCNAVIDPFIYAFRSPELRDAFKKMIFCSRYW
T1 sequence (Q8TCY5 whole entry partner): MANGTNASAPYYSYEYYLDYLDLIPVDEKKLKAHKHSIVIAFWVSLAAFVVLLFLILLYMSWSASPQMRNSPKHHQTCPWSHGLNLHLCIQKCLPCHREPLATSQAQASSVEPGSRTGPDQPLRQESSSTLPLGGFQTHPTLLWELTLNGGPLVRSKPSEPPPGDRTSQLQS

Ki	Structure (SMILES)
< 10 nM	CCOc1ccccc1-c1ccc(C2(C(=O)N[C@H]3CCN(C)C3)CCN(c3ccc(Cl)cc3Cl)CC2)cn1 [Compound 1-95, 1-(2,4-dichlorophenyl)-4-[6-(2-ethoxyphenyl)pyridin-3-yl]-N-[(3S)-1-methylpyrrolidin-3-yl]piperidine-4-carboxamide]
< 10 nM	CCOc1ncccc1-c1ncc(C2(C(=O)N[C@@H](C)CNC)CCN(c3ccc(Cl)cc3C#N)CC2)cc1F [Compound 1-323, 1-(4-chloro-2-cyanophenyl)-4-{2′-ethoxy-3-fluoro-[2,3′-bipyridin]-5-yl}-N-[(2S)-1-(methylamino)propan-2-yl]piperidine-4-carboxamide]
< 10 nM	CCOc1ncccc1-c1ccc(C2(C(=O)NC[C@@H](CO)NC)CCN(c3ccc(C(F)(F)F)cc3C#N)CC2)cn1 [Compound 1-47, 1-[2-cyano-4-(trifluoromethyl)phenyl]-4-{2′-ethoxy-[2,3′-bipyridin]-5-yl}-N-[(2S)-3-hydroxy-2-(methylamino)propyl]piperidine-4-carboxamide]
< 10 nM	COc1ncc(F)cc1-c1ccc(C2(C(=O)N[C@H]3CCN(C)C3)CCN(c3ccc(C(F)(F)F)cc3Cl)CC2)cn1 [Compound 1-154, 1-[2-chloro-4-(trifluoromethyl)phenyl]-4-{5′-fluoro-2′-methoxy-[2,3′-bipyridin]-5-yl}-N-[(3S)-1-methylpyrrolidin-3-yl]piperidine-4-carboxamide]
< 10 nM	CCOc1ncccc1-c1ccc(C2(C(=O)N[C@@H]3CCN(C)C3)CCN(c3ccc(C(F)(F)F)cc3C#N)CC2)nc1 [Compound 1-22, 1-[2-cyano-4-(trifluoromethyl)phenyl]-4-{2′-ethoxy-[3,3′-bipyridin]-6-yl}-N-[(3R)-1-methylpyrrolidin-3-yl]piperidine-4-carboxamide]
< 10 nM	CCOc1ccccc1-c1ncc(C2(C(=O)NCCN(C)C)CCN(c3ccc(C(F)(F)F)cc3F)CC2)cc1F [Compound 1-289, N-[2-(dimethylamino)ethyl]-4-[6-(2-ethoxyphenyl)-5-fluoropyridin-3-yl]-1-[2-fluoro-4-(trifluoromethyl)phenyl]piperidine-4-carboxamide]
< 10 nM	COc1ccccc1-c1ccc(C2(C(=O)NC[C@@H]3C[C@H](F)CN3)CCN(c3ccc(C(F)(F)F)cc3C#N)CC2)cn1 [Compound 1-246, 1-[2-cyano-4-(trifluoromethyl)phenyl]-N-{[(2S,4S)-4-fluoropyrrolidin-2-yl]methyl}-4-[6-(2-methoxyphenyl)pyridin-3-yl]piperidine-4-carboxamide]
< 10 nM	CCc1ccccc1-c1ccc(C2(C(=O)N[C@@H]3CCN(C)C3)CCN(c3ccc(C(F)(F)F)cc3C#N)CC2)cn1 [Compound 1-60, 1-[2-cyano-4-(trifluoromethyl)phenyl]-4-[6-(2-ethylphenyl)pyridin-3-yl]-N-[(3R)-1-methylpyrrolidin-3-yl]piperidine-4-carboxamide]
< 10 nM	CCOc1ncccc1-c1ccc(C2(C(=O)N[C@@H]3CCNC3)CCN(c3ccc(C(F)(F)F)cc3C#N)CC2)nc1 [Compound 1-21, 1-[2-cyano-4-(trifluoromethyl)phenyl]-4-{2′-ethoxy-[3,3′-bipyridin]-6-yl}-N-[(3R)-pyrrolidin-3-yl]piperidine-4-carboxamide]
< 10 nM	CCOc1ncccc1-c1ccc(C2(C(=O)NC[C@H](CO)N(C)C)CCN(c3ccc(C(F)(F)F)cc3C#N)CC2)cn1 [Compound 1-45, 1-[2-cyano-4-(trifluoromethyl)phenyl]-N-[(2R)-2-(dimethylamino)-3-hydroxypropyl]-4-{2′-ethoxy-[2,3′-bipyridin]-5-yl}piperidine-4-carboxamide]
< 10 nM	COc1ncccc1-c1ccc(C2(C(=O)N[C@@H](C)CN(C)C)CCN(c3ccc(C(F)(F)F)cc3F)CC2)cn1 [Compound 1-295, N-[(2S)-1-(dimethylamino)propan-2-yl]-1-[2-fluoro-4-(trifluoromethyl)phenyl]-4-{2′-methoxy-[2,3′-bipyridin]-5-yl}piperidine-4-carboxamide]
